{
  "source": "patent US6953786B2",
  "about": "“Compositions comprising plant-derived polyphenolic compounds and inhibitors of reactive oxygen species and methods of using thereof” (The Regents of the University of California, priority 2002, dated 2005)",
  "key": {"NF-κB [1]": {"test_system": "NF-κB", "assay": "NF-κB DNA binding activity (EMSA)", "assay_type": "cell-based, rat", "details": "BSp73AS, 6 hours; polyphenols 100 μM, MG-132 20 μM", "method": "In order to determine the role of activated NF-κB in the regulation of apoptosis caused by the polyphenolic compound, the following assay was conducted. BSp73AS cells were cultured for 6 hours and Mia PACA-2 cells were cultured in the absence of serum or growth factors for 24 hours in the absence (controls) or presence of rutin, quercetin, trans-resveratrol, or genistein, each at 100 μM and 20 μM proteosome inhibitor MG-132. Nuclear proteins were isolated and analyzed for NF-κB DNA binding activity with electrophoretic mobility shift assay (EMSA). Specifically, aliquots of nuclear extracts with equal amount of protein, about 2 to about 10 μg, were mixed in 20 μl reactions with a buffer comprising 10 mM HEPES (pH 7.6), 50 mM KCl, 0.1 mM EDTA, 1 mM DTT, 10% (vol/vol) glycerol and 3 μg poly[d (I-C)]. After aliquots were equilibrated on ice for 5 minutes, binding reactions were stared by addition of 20-60,000 counts/min (20 fM) of ^32P-labeled DNA probes and allowed to proceed for 25-30 minutes at room temperature or up to 1 hour on ice. The oligonucleotide probe containing the κB binding motif (underlined) was annealed to the complementary oligonucleotide with a 5′-G overhang and end-labeled using Klenow DNA polymerase I. The samples were electrophoresed at room temperature in 0.5×TBE buffer (1×TBE 89 mM Tris base, 89 mM boric acid and 2 mM EDTA) on nondenaturing 4.5% polyacrylamide gel at 200 V. Gels were dried and directly analyzed in the PhosphorImager (Molecular Dynamics, Sunnyvale, Calif.). The experiment was repeated twice."}, "NF-κB [2]": {"test_system": "NF-κB", "assay": "NF-κB DNA binding activity (EMSA / gel shift)", "assay_type": "cell-based, human", "details": "Mia PACA-2, 24 hours, no serum; polyphenols 100 μM, MG-132 20 μM", "method": "In order to determine the role of activated NF-κB in the regulation of apoptosis caused by the polyphenolic compound, the following assay was conducted. BSp73AS cells were cultured for 6 hours and Mia PACA-2 cells were cultured in the absence of serum or growth factors for 24 hours in the absence (controls) or presence of rutin, quercetin, trans-resveratrol, or genistein, each at 100 μM and 20 μM proteosome inhibitor MG-132. Nuclear proteins were isolated and analyzed for NF-κB DNA binding activity with electrophoretic mobility shift assay (EMSA).\nSpecifically, aliquots of nuclear extracts with equal amount of protein, about 2 to about 10 μg, were mixed in 20 μl reactions with a buffer comprising 10 mM HEPES (pH 7.6), 50 mM KCl, 0.1 mM EDTA, 1 mM DTT, 10% (vol/vol) glycerol and 3 μg poly[d (I-C)]. After aliquots were equilibrated on ice for 5 minutes, binding reactions were stared by addition of 20-60,000 counts/min (20 fM) of ^32P-labeled DNA probes and allowed to proceed for 25-30 minutes at room temperature or up to 1 hour on ice. The oligonucleotide probe\ncontaining the κB binding motif (underlined) was annealed to the complementary oligonucleotide with a 5′-G overhang and end-labeled using Klenow DNA polymerase I. The samples were electrophoresed at room temperature in 0.5×TBE buffer (1×TBE 89 mM Tris base, 89 mM boric acid and 2 mM EDTA) on nondenaturing 4.5% polyacrylamide gel at 200 V. Gels were dried and directly analyzed in the PhosphorImager (Molecular Dynamics, Sunnyvale, Calif.). The experiment was repeated twice.\nTo study the effects of combinations of DPI and polyphenolic compounds on serum-induced activation of NF-κB and protection from apoptosis, the following assay was conducted. Mia PACA-2 cells were cultured for 72 hours in the presence of serum with or without 100 μM trans-resveratrol, 15 μM DPI, a combination of trans-resveratrol, 100 μM genistein, or a combination of genistein and DPI. NF-κB binding activity was measured in nuclear extracts by gel shift assay as described above.\nTo determine the effects of LY29400 and DPI on NF-κB activation, Mia PACA-2 cells were cultured for 72 hours in the presence of serum and 15 μM DPI with or without 50 μM LY294002. NF-κB DNA binding activity was measured in nuclear extracts by gel shift assay as described above."}, "[3]": {"test_system": "BSp73AS and Mia PACA-2 cells", "assay": "Caspase-3 activity and annexin staining with MG-132 (FIG. 14C)", "assay_type": "cell-based", "details": "MG-132 20 μM"}},
  "note": "Residues, ends and D or L forms follow the SMILES beside them. *: point of attachment. Cbz = O=C(OCc1ccccc1)*",
  "data": [
    {"smiles": "CC(C)C[C@@H](C=O)NC(=O)[C@H](CC(C)C)NC(=O)[C@H](CC(C)C)NC(=O)OCc1ccccc1", "note": "[MG-132, reference compound] (Cbz-Leu-Leu-Leu-aldehyde)", "values": [
      {"measurement": "NF-κB activation (DNA binding)", "setting": "NF-κB [1]", "result": "blocks NF-κB activation"},
      {"measurement": "NF-κB activation (DNA binding)", "setting": "NF-κB [2]", "result": "blocks NF-κB activation"},
      {"measurement": "caspase-3 activity", "setting": "[3]", "result": "small increase in caspase-3 activity"},
      {"measurement": "apoptosis (annexin staining)", "setting": "[3]; polyphenols 100 μM", "result": "does not increase apoptosis rates to the same extent as trans-resveratrol"}
    ]}
  ]
}
